Data taken from patent US20060079453A1, “Hla binding peptides and their uses” (priority 2002, published 2006).
No end group written: not given here.

Assays:
Assay in all cases: biochemical
Format in all cases: binding
[1] = biological target: HLA-DR DRB4*0101 (DR53) (Homo sapiens, UniProt P01903+P13762, G164S); settings: DRB4 *0101
[2] = biological target: HLA-DR DRB1*0301 (DR3) (Homo sapiens, UniProt P01903+P01911, A100K/A102G/A103R/A169T/F55Y/I96L/K41T/L162R/M171V/P40S/Q125H/Q178H/Q39Y/R42S/S66N/T106N/T262R/W38E/Y61H)
Sequence of HLA-DR DRB1*0301 (DR3) (P01903 26-254 limits assumed, other chains not shown): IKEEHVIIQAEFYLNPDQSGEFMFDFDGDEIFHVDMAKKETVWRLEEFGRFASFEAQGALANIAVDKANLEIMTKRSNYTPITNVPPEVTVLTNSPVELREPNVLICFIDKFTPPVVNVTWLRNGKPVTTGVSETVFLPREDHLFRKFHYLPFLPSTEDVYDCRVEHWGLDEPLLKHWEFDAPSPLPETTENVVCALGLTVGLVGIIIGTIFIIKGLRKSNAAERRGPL

[3] = biological target: HLA-DR DRB5*0101 (DR51) (Homo sapiens, UniProt P01903+Q30154); settings: DRB5 *0101
[4] = biological target: HLA-DR DRB1*0401 (DR4) (Homo sapiens, UniProt P01903+P01911, A100K/A169T/F76Y/I96L/K127E/L162R/M171V/N62H/P40V/Q125Y/R42H/S133A/S149N/S66Y/V115G/V209L/W38E); settings: DRB1 *0401
[5] = biological target: HLA-DR DRB1*1302 (DR13) (Homo sapiens, UniProt P01903+P01911, A100E/A169T/K41T/L162R/M171V/P40S/Q125H/Q178H/Q39Y/Q99D/R42S/S66N/T262R/V115G/W38E/Y61H); settings: DRBI *1302
Sequence of HLA-DR DRB1*1302 (DR13) (P01903 26-254 limits assumed, other chains not shown): as above

[6] = biological target: HLA-DR DRB1*1101 (DR11) (Homo sapiens, UniProt P01903+P01911, A100R/A169T/A87E/I96F/K41T/L162R/M171V/P40S/Q125H/Q178H/Q39Y/Q99D/R42S/S66Y/T262R/V115G/W38E); settings: DRB1 *1101
Sequence of HLA-DR DRB1*1101 (DR11) (P01903 26-254 limits assumed, other chains not shown): as above

[7] = biological target: HLA-DR DRB1*0901 (DR9) (Homo sapiens, UniProt P01903+P01911, A100R/A103E/D57H/D86V/F55Y/F60I/F76Y/I96F/K127E/L162R/M171V/P40D/Q125H/Q99R/R33Q/R42F/S133A/S66N/T210M/V115G/W38K/Y107V/Y59G/Y89S); settings: DRB1 *0901
[8] = biological target: HLA-DR DRB3*0101 (DR52) (Homo sapiens, UniProt P01903+P79483)
[9] = biological target: HLA-DR DRB1*0802 (DR8) (Homo sapiens, UniProt P01903+P01911, A100R/A103L/A169T/F76Y/H45Y/I96F/K41T/L162R/M171V/P40S/Q125H/Q178H/Q39Y/Q99D/R218S/R42G/S66Y/V115G/W38E)
[10] = biological target: HLA-DR DRB1*0101 (DR1) (Homo sapiens, UniProt P01903+P01911, A100R/D57E/F55L/F60I/F76Y/I96L/L162R/M171V/P40L/Q125E/R42F/V115G/Y59C); settings: DRB1 *0101
[11] = biological target: HLA-DR DRB1*1501 (DR15) (Homo sapiens, UniProt P01903+P01911); settings: DRBI *1501
[12] = biological target: HLA-DR DRB1*0701 (DR7) (Homo sapiens, UniProt P01903+P01911, A100R/A102G/A103Q/D57E/D86V/E43K/F76Y/K127E/L162R/M171V/P40G/Q125H/Q99D/R33Q/R42Y/R54Q/S133A/S66F/T210M/V115G/Y107V/Y59L/Y89S); settings: DRB1 *0701

## CC[C@H](C)[C@H](NC(=O)[C@@H](NC(=O)[C@@H](N)CO)C(C)C)C(=O)N[C@@H](CC(C)C)C(=O)N[C@@H](CC(C)C)C(=O)NCC(=O)N[C@@H](CCCNC(=N)N)C(=O)N[C@@H](Cc1c[nH]cn1)C(=O)N[C@@H](CO)C(=O)N[C@@H](CC(C)C)C(=O)N[C@@H](Cc1ccccc1)C(=O)N[C@@H](Cc1c[nH]cn1)C(=O)N1CCC[C@H]1C(=O)N[C@@H](CCC(=O)O)C(=O)N[C@@H](CC(=O)O)C(=O)O [SVILLGRHSLFHPED]
[1]
  IC50: 4.41 µM
[2]
  IC50: 1.4 µM
[3]
  IC50: 16.1 µM
[4]
  IC50: 12.6 µM
[5]
  IC50: 0.096 µM
[6]
  IC50: 0.096 µM
[7]
  IC50: 5.22 µM
[8]
  IC50: 13 µM
[9]
  IC50: 0.5 µM
[10]
  IC50: 0.717 µM

## TTLLRALGAQKEAIS
[2]
  IC50: 107 µM
[3]
  IC50: 0.021 µM
[4]
  IC50: 0.339 µM
[5]
  IC50: 1.51 µM
[6]
  IC50: 0.86 µM
[7]
  IC50: 4.61 µM
[8]
  IC50: 33.3 µM
[11]
  IC50: 0.089 µM
[12]
  IC50: 4.28 µM
[9]
  IC50: 0.652 µM
[10]
  IC50: 0.019 µM

## CC[C@H](C)[C@H](NC(=O)[C@H](CCCNC(=N)N)NC(=O)[C@@H](N)[C@@H](C)O)C(=O)N[C@@H](Cc1ccc(O)cc1)C(=O)N[C@@H](CC(N)=O)C(=O)N[C@H](C(=O)N[C@H](C(=O)NCC(=O)N[C@H](C(=O)N[C@@H](CC(C)C)C(=O)N[C@@H](CCCNC(=N)N)C(=O)NCC(=O)N[C@@H](C)C(=O)N[C@H](C(=O)N[C@@H](CCC(=O)O)C(=O)O)C(C)C)[C@@H](C)O)[C@@H](C)CC)C(C)C
[1]
  IC50: 0.447 µM
[2]
  IC50: 33.3 µM
[3]
  IC50: 0.032 µM
[4]
  IC50: 0.0063 µM
[5]
  IC50: 1.46 µM
[6]
  IC50: 0.045 µM
[7]
  IC50: 2.9 µM
[8]
  IC50: 17.5 µM
[12]
  IC50: 4.81 µM
[9]
  IC50: 0.07 µM
[10]
  IC50: 0.014 µM

## HPLYNMSLLKHQSLR
[1]
  IC50: 0.0084 µM
[2]
  IC50: 13 µM
[3]
  IC50: 0.219 µM
[4]
  IC50: 0.499 µM
[5]
  IC50: 0.546 µM
[7]
  IC50: 0.199 µM
[8]
  IC50: > 14.9 µM
[11]
  IC50: 0.472 µM
[12]
  IC50: 1.28 µM
[9]
  IC50: 0.382 µM
[10]
  IC50: 0.232 µM

## SNLELLRISLLLIQS
[2]
  IC50: 43.5 µM
[3]
  IC50: 50.1 µM
[6]
  IC50: 23.7 µM
[7]
  IC50: 3.42 µM
[8]
  IC50: > 91.9 µM
[11]
  IC50: 0.059 µM
[12]
  IC50: 0.642 µM
[9]
  IC50: > 33.3 µM
[10]
  IC50: 0.072 µM

## GRLEYTLKDRRNFDI
[2]
  IC50: 0.03 µM
[3]
  IC50: 0.796 µM
[6]
  IC50: 5 µM
[7]
  IC50: > 77.3 µM
[8]
  IC50: 9.9 µM
[11]
  IC50: 0.168 µM
[12]
  IC50: 4.96 µM
[9]
  IC50: 4.92 µM
[10]
  IC50: 7.25 µM

## ITDSRVLERYLLEAK
[2]
  IC50: 6.5 µM
[4]
  IC50: 1.3 µM
[5]
  IC50: > 14.7 µM
[6]
  IC50: 5.28 µM
[7]
  IC50: > 78.9 µM
[8]
  IC50: > 42.2 µM
[11]
  IC50: 0.018 µM
[12]
  IC50: 7.5 µM
[9]
  IC50: 0.967 µM
[10]
  IC50: 1.57 µM

## TSITSLYQLENYTN
[2]
  IC50: 81.3 µM
[3]
  IC50: 6.05 µM
[5]
  IC50: > 17.1 µM
[6]
  IC50: 1.1 µM
[7]
  IC50: 9.95 µM
[8]
  IC50: > 95.2 µM
[11]
  IC50: 0.099 µM
[12]
  IC50: 6.06 µM
[9]
  IC50: 26.8 µM

## CC[C@H](C)[C@H](NC(=O)[C@H](Cc1c[nH]c2ccccc12)NC(=O)[C@@H](NC(=O)[C@@H](NC(=O)[C@H](CO)NC(=O)[C@H](CC(C)C)NC(=O)[C@@H](N)[C@@H](C)O)C(C)C)[C@@H](C)O)C(=O)NCC(=O)N[C@@H](C)C(=O)N[C@@H](C)C(=O)N1CCC[C@H]1C(=O)N[C@@H](CC(C)C)C(=O)N[C@H](C(=O)N[C@@H](CC(C)C)C(=O)N[C@@H](CO)C(=O)O)[C@@H](C)CC
[2]
  IC50: > 81.8 µM
[3]
  IC50: 0.031 µM
[5]
  IC50: 0.642 µM
[6]
  IC50: 6.86 µM
[7]
  IC50: 0.0054 µM
[8]
  IC50: 6.03 µM
[11]
  IC50: 0.097 µM
[12]
  IC50: 0.016 µM
[9]
  IC50: 0.84 µM
[10]
  IC50: 0.0031 µM

## CC[C@H](C)[C@H](NC(=O)[C@H](Cc1ccccc1)NC(=O)[C@H](Cc1c[nH]c2ccccc12)NC(=O)CNC(=O)[C@H](Cc1ccccc1)NC(=O)[C@H](CC(C)C)NC(=O)[C@H](Cc1ccccc1)NC(=O)CNC(=O)[C@@H](N)CC(C)C)C(=O)N[C@@H](CCCCN)C(=O)N[C@@H](CO)C(=O)N[C@@H](CO)C(=O)N[C@@H](CC(N)=O)C(=O)N[C@@H](CCC(=O)O)C(=O)N[C@@H](C)C(=O)O
[1]
  IC50: 9.28 µM
[2]
  IC50: > 75 µM
[3]
  IC50: 0.461 µM
[4]
  IC50: 1.34 µM
[5]
  IC50: 10.1 µM
[6]
  IC50: 7.3 µM
[7]
  IC50: 1.7 µM
[8]
  IC50: 0.681 µM
[12]
  IC50: 2.26 µM
[9]
  IC50: 1.42 µM
[10]
  IC50: 0.01 µM

## CC[C@H](C)[C@H](NC(=O)[C@H](CCC(N)=O)NC(=O)[C@@H](N)CCCNC(=N)N)C(=O)N[C@@H](Cc1ccc(O)cc1)C(=O)N[C@H](C(=O)N[C@@H](C)C(=O)N[C@@H](C)C(=O)N[C@@H](Cc1ccccc1)C(=O)N[C@H](C(=O)N[C@H](C(=O)N[C@@H](CCC(N)=O)C(=O)N[C@@H](C)C(=O)N[C@@H](C)C(=O)N[C@@H](C)C(=O)N[C@@H](CCC(=O)O)C(=O)O)C(C)C)[C@@H](C)O)C(C)C
[1]
  IC50: 0.047 µM
[2]
  IC50: 28.3 µM
[4]
  IC50: 0.0012 µM
[5]
  IC50: 0.524 µM
[6]
  IC50: 0.035 µM
[7]
  IC50: 0.091 µM
[8]
  IC50: 6.81 µM
[9]
  IC50: 0.036 µM
[10]
  IC50: 0.0037 µM

## TSITSLYQLENYTG
[1]
  IC50: 1.66 µM
[2]
  IC50: 96.7 µM
[3]
  IC50: 16.1 µM
[4]
  IC50: 1.63 µM
[5]
  IC50: > 17.1 µM
[6]
  IC50: 1.01 µM
[7]
  IC50: 46.3 µM
[8]
  IC50: 92.3 µM
[12]
  IC50: 8.37 µM
[9]
  IC50: 14.6 µM

## CC[C@H](C)[C@H](NC(=O)[C@@H](NC(=O)[C@H](Cc1c[nH]cn1)NC(=O)[C@@H](N)CC(C)C)C(C)C)C(=O)N[C@@H](CO)C(=O)N[C@@H](CC(N)=O)C(=O)N[C@@H](CC(=O)O)C(=O)N[C@H](C(=O)N[C@@H](CS)C(=O)N[C@@H](C)C(=O)N[C@@H](CCC(N)=O)C(=O)N[C@H](C(=O)N[C@@H](Cc1c[nH]cn1)C(=O)N1CCC[C@H]1C(=O)N[C@@H](CCC(N)=O)C(=O)O)C(C)C)C(C)C
[1]
  IC50: 1.09 µM
[2]
  IC50: 8.32 µM
[3]
  IC50: > 200 µM
[4]
  IC50: 0.79 µM
[6]
  IC50: > 50 µM
[7]
  IC50: 32.7 µM
[8]
  IC50: 1.89 µM
[11]
  IC50: 22.8 µM
[12]
  IC50: 17.5 µM
[9]
  IC50: > 123 µM
[10]
  IC50: 0.789 µM

## CC[C@H](C)[C@H](NC(=O)CNC(=O)[C@H](Cc1ccc(O)cc1)NC(=O)[C@H](CC(C)C)NC(=O)[C@H](CO)NC(=O)[C@H](CC(C)C)NC(=O)[C@H](CC(C)C)NC(=O)[C@H](CO)NC(=O)[C@@H](N)CC(C)C)C(=O)N[C@@H](Cc1c[nH]cn1)C(=O)N[C@@H](CCCCN)C(=O)N[C@@H](CCC(N)=O)C(=O)N[C@@H](CCCCN)C(=O)N[C@@H](CCC(=O)O)C(=O)N[C@@H](CCCCN)C(=O)O
[1]
  IC50: 0.772 µM
[2]
  IC50: > 81.8 µM
[3]
  IC50: 0.0034 µM
[4]
  IC50: 4.44 µM
[5]
  IC50: > 35 µM
[7]
  IC50: 4.96 µM
[8]
  IC50: > 15 µM
[11]
  IC50: 0.058 µM
[12]
  IC50: > 35.7 µM
[9]
  IC50: 1.64 µM
[10]
  IC50: 0.656 µM
